Laboratory results taken from patent US8697641B2, “4-amino-4-oxobutanoyl peptide cyclic analogues, inhibitors of viral replication” (Achillion Pharmaceuticals, Inc., priority 2008, dated 2014).
pEC50: −log10 of the molar value.

system: Hepatitis C replicon; assay: HCV replicon assay (NPT ELISA readout) in Huh-7 replicon-containing cells; format: cell-based, Hepatitis C virus; conditions: Hepatitis C virus, 72 h; HCV replicon in Huh-7 cells, three days incubation
Description: Compounds claimed herein are tested for the ability to inhibit viral replication of the Hepatitis C replicon in cultured cells in which the HCV replicon construct has been incorporated. The HCV replicon system was described by Bartenschlager, et. al (Science, 285, pp. 110-113 (1999)). The replicon system is predictive of in vivo anti-HCV activity; compounds that are active in humans uniformly evidence activity in the replicon assay.
In this assay HCV replicon containing cells are treated with different concentrations of the test compound to ascertain the ability of the test compound to suppress replication of the HCV replicon. As a positive control, HCV replicon-containing cells are treated with different concentrations of interferon alpha, a known inhibitor of HCV replication. The replicon assay system includes Neomycin Phosphotransferase (NPT) as a component of the replicon itself in order to detect the transcription of replicon gene products in the host cell. Cells in which the HCV replicon is actively replicating have high levels of NPT; the level of NPT is proportional to HCV replication. […] The NPT level of each sample is measured using a captured ELISA.
A protocol for testing compounds for the ability to inhibit viral replication of the Hepatitis C replicon cultured cells in which the replicon construct has been incorporated, follows.
The HCV replicon contains, 5′-3′, the HCV-IRES, the neomycin phosphotransferase (neo) gene, the IRES of encephalomyocarditis virus, which directs translation of HCV sequences NS3 to NS5B, and the 3′-NTR. The sequence of the HCV replicon has been deposited in GenBank (Accession no. AJ242652).
The replicon is transfected into Huh-7 cells using standard methods such as electroporation.
The equipment and materials include, but are not limited to, Huh-7 HCV replicon-containing cells, maintenance media (DMEM (Dulbecco's modified Eagle media) supplemented with 10% FBS, L-glutamine, non-essential amino acids, penicillin (100 units/ml), streptomycin (100 micrograms/ml), and 500 micrograms/ml of Geneticin (G418), screening media (DMEM supplemented with 10% FBS, L-glutamine, non-essential amino acids, penicillin (100 units/ml) and streptomycin (100 micrograms/ml)), 96 well tissue culture plates (flat bottom), 96 well plates (U bottom for drug dilution), Interferon alpha for positive control, fixation reagent (such as methanol:acetone), primary antibody (rabbit anti-NPTII), secondary antibody: Eu-N1 l, and enhancement solution.
The cells are then seeded onto 96-well plates at a density of 6000-7500 cells/100 microliters/well (6-7.5×10^5 cells/10 ml/plate). The plates are then incubated at 37° C. in a 5% CO2 incubator.
HCV replicon-containing cells are rinsed with once PBS once; 2 mls of trypsin are then added. Cells are incubated at 37° C. in a 5% CO2 incubator for 3-5 minutes. 10 mls of complete medium is added to stop the reaction. Cells are blown gently, put into a 15 ml tube, and spun at 1200 rpm for four minutes. The trypsin/medium solution is removed and 5 mls of medium (500 ml DMEM (high glucose)) from BRL catalog #12430-054; 50 mls 10% FBS, 5% Geneticin G418 (50 mg/ml, BRL catalog #10131-035), 5 ml MEM non-essential amino acids (100×BRL #11140-050) and 5 ml pen-strep (BRL #15140-148) is added. The cells and media are mixed carefully
Cells are plated with screening medium (500 ml DMEM (BRL #21063-029), 50 ml FBS (BRL #10082-147) and 5 ml MEM non-essential amino acid (BRL #11140-050) at 6000-7500 fcells/100 μl/well of 96 well plate (6-7.5×10^5 cells/10 ml/plate). Plates are placed into 37° C. 5% CO2 incubator overnight.
The following morning, drugs (test compounds or interferon alpha) are diluted in 96 well U bottom plates with media or DMSO/media, depending on the final concentration chosen for screening. Generally for 6 concentrations of each test compounds ranging from 10 micromolar to 0.03 micromolar are applied. […]

Row | Compound | pEC50
1 | COc1ccc2c(O[C@@H]3C[C@H]4C(=O)N[C@]5(C(=O)NS(=O)(=O)C6CC6)C[C@H]5/C=C\CCCCC[C@H](CC(=O)N5CCCC5)C(=O)N4C3)cc(-c3ccccc3)nc2c1 [Compound 55, (2R,6R,13aS, 14aR,16aS,Z)-N-(cyclopropylsulfonyl)-2-(7-methoxy-2-phenylquinolin-4-yloxy)-5,16-dioxo-6-(2-oxo-2-(pyrrolidin-1-yl)ethyl)-1,2,3,5,6,7,8,9,10,11, 13a,14,14a,15,16,16a-hexadecahydrocyclopropa [e]pyrrolo[1,2-a][1,4] diazacyclopentadecine-14a-carboxamide] | > 6.00
2 | COc1ccc2c(O[C@@H]3C[C@H]4C(=O)N[C@@H](C(=O)NS(=O)(=O)C5CC5)C/C=C\CCCCC[C@H](CC(=O)N5CCCCC5)C(=O)N4C3)cc(-c3ccccc3)nc2c1 [Compound 56, (3R,12R,16R,17aS, Z)-N-(cyclopropylsulfonyl)-16-(7-methoxy-2-phenylquinolin-4-yloxy)-1,13-dioxo-12-(2-oxo-2-(piperidin-1-yl)ethyl)-2,3,4,7,8,9,10,11, 12,13,15,16,17,17a-tetradecahydro-1H-pyrrolo[1,2-a][1,4] diazacyclopentadecine-3-carboxamide] | 5.00 to 6.00
3 | COc1ccc2c(O[C@@H]3C[C@H]4C(=O)N[C@H](C(=O)NS(=O)(=O)C5CC5)C/C=C\CCCCC[C@H](CC(=O)N5CCCCC5)C(=O)N4C3)cc(-c3ccccc3)nc2c1 [Compound 57, (3S,12R,16R,17aS,Z)-N-(cyclopropylsulfonyl)-16-(7-methoxy-2-phenylquinolin-4-yloxy)-1,13-dioxo-12-(2-oxo-2-(piperidin-1-yl)ethyl)-2,3,4,7,8,9,10,11, 12,13,15,16,17,17a-tetradecahydro-1H-pyrrolo[1,2-a][1,4] diazacyclopentadecine-3-carboxamide] | 5.00 to 6.00
4 | COc1ccc2c(O[C@@H]3C[C@H]4C(=O)N[C@]5(C(=O)NS(=O)(=O)C6CC6)C[C@H]5/C=C\CCCCC[C@H](CC(=O)O)C(=O)N4C3)cc(-c3ccccc3)nc2c1 [Compound 59, 2-((2R,6R,13aS, 14aR,16aS,Z)-14a-(cyclopropylsulfonyl-carbamoyl)-2-(7-methoxy-2-phenylquinolin-4-yloxy)-5,16-dioxo-1,2,3,5,6,7,8,9,10,11, 13a,14,14a,15,16,16a-hexadecahydrocyclopropa [e]pyrrolo[1,2-a][1,4]diazacyclopentadecin-6-yl)acetic acid] | > 6.00
5 | COc1ccc2c(O[C@@H]3C[C@H]4C(=O)N[C@]5(C(=O)NS(=O)(=O)C6CC6)C[C@H]5/C=C\CCCCC[C@H](CC(=O)N5CCOCC5)C(=O)N4C3)cc(-c3ccccc3)nc2c1 [Compound 60, (2R,6R,13aS, 14aR,16aS,Z)-N-(cyclopropylsulfonyl)-2-(7-methoxy-2-phenylquinolin-4-yloxy)-6-(2-morpholino-2-oxoethyl)-5,16-dioxo-1,2,3,5,6,7,8,9,10,11, 13a,14,14a,15,16,16a-hexadecahydrocyclopropa [e]pyrrolo[1,2-a][1,4] diazacyclopentadecine-14a-carboxamide] | > 6.00
6 | COc1ccc2c(O[C@@H]3C[C@H]4C(=O)N[C@]5(C(=O)NS(=O)(=O)C6CC6)C[C@H]5/C=C\CCCCC[C@H](CC(=O)N5CCC(F)(F)CC5)C(=O)N4C3)cc(-c3ccccc3)nc2c1 [Compound 61, (2R,6R,13aS, 14aR,16aS,Z)-N-(cyclopropylsulfonyl)-6-(2-(4,4-difluoropiperidin-1-yl)-2-oxoethyl)-2-(7-methoxy-2-phenylquinolin-4-yloxy)-5,16-dioxo-1,2,3,5,6,7,8,9,10,11, 13a,14,14a,15,16,16a-hexadecahydrocyclopropa [e]pyrrolo[1,2-a][1,4] diazacyclopentadecine-14a-carboxamide] | > 6.00
7 | COc1ccc2c(O[C@@H]3C[C@H]4C(=O)N[C@]5(C(=O)NS(=O)(=O)C6CC6)C[C@H]5/C=C\CCCCC[C@H](CC(=O)N5CCC(C(F)(F)F)CC5)C(=O)N4C3)cc(-c3ccccc3)nc2c1 [Compound 62, (2R,6R,13aS, 14aR,16aS,Z)-N-(cyclopropylsulfonyl)-2-(7-methoxy-2-phenylquinolin-4-yloxy)-5,16-dioxo-6-(2-oxo-2-(4-(trifluoromethyl)piperidin-1-yl)ethyl)-1,2,3,5,6,7,8,9,10,11, 13a,14,14a,15,16,16a-hexadecahydrocyclopropa [e]pyrrolo[1,2-a][1,4] diazacyclopentadecine-14a-carboxamide] | > 6.00
8 | COc1ccc2c(O[C@@H]3C[C@H]4C(=O)N[C@]5(C(=O)NS(=O)(=O)C6CC6)C[C@H]5/C=C\CCCCC[C@H](CC(=O)N5CCC(F)(F)C5)C(=O)N4C3)cc(-c3ccccc3)nc2c1 [Compound 63, (2R,6R,13aS, 14aR,16aS,Z)-N-(cyclopropylsulfonyl)-6-(2-(3,3 - difluoropyrrolidin-1-yl)-2-oxoethyl)-2-(7-methoxy-2-phenylquinolin-4-yloxy)-5,16-dioxo-1,2,3,5,6,7,8,9,10,11, 13a,14,14a,15,16,16a-hexadecahydrocyclopropa [e]pyrrolo[1,2-a][1,4] diazacyclopentadecine-14a-carboxamide] | > 6.00
9 | COc1ccc2c(O[C@@H]3C[C@H]4C(=O)NC(C)(C(=O)O)C/C=C\CCCCC[C@H](CC(=O)N5CCCCC5)C(=O)N4C3)cc(-c3ccccc3)nc2c1 (stereo partly drawn) [Compound 64, (12R,16R,17aS,Z)-16-(7-methoxy-2-phenylquinolin-4-yloxy)-3-methyl-1,13-dioxo-12-(2-oxo-2-(piperidin-1-yl)ethyl)-2,3,4,7,8,9,10,11, 12,13,15,16,17,17a-tetradecahydro-1H-pyrrolo[1,2-a][1,4] diazacyclopentadecine-3-carboxylic acid] | 5.00 to 6.00
10 | COc1ccc2c(O[C@@H]3C[C@H]4C(=O)N[C@@](C)(C(=O)NS(=O)(=O)C5CC5)C/C=C\CCCCC[C@H](CC(=O)N5CCCCC5)C(=O)N4C3)cc(-c3ccccc3)nc2c1 [Compound 65, (3R,12R,16R,17aS,Z)-N-(cyclopropylsulfonyl)-16-(7-methoxy-2-phenylquinolin-4-yloxy)-3-methyl-1,13-dioxo-12-(2-oxo-2-(piperidin-1-yl)ethyl)-2,3,4,7,8,9,10, 11,12,13,15,16,17,17a-tetradecahydro-1H-pyrrolo[1,2-a][1,4] diazacyclopentadecine-3-carboxamide] | 5.00 to 6.00
11 | COc1ccc2c(O[C@@H]3C[C@H]4C(=O)N[C@](C)(C(=O)NS(=O)(=O)C5CC5)C/C=C\CCCCC[C@H](CC(=O)N5CCCCC5)C(=O)N4C3)cc(-c3ccccc3)nc2c1 [Compound 66, (3S,12R,16R,17aS,Z)-N-(cyclopropylsulfonyl)-16-(7-methoxy-2-phenylquinolin-4-yloxy)-3-methyl-1,13-dioxo-12-(2-oxo-2-(piperidin-1-yl)ethyl)-2,3,4,7,8,9,10, 11,12,13,15,16,17,17a-tetradecahydro-1H-pyrrolo[1,2-a][1,4] diazacyclopentadecine-3-carboxamide] | 5.00 to 6.00
12 | COc1ccc2c(O[C@@H]3C[C@H]4C(=O)N[C@]5(C(=O)NS(=O)(=O)C6CC6)C[C@H]5/C=C\CCCCC[C@H](CC(=O)N5CCN(C(=O)OC(C)(C)C)CC5)C(=O)N4C3)cc(-c3ccccc3)nc2c1 [Compound 67, tert-butyl 4-(2-((2R,6R, 13aS,14aR,16aS,Z)-14a-(cyclopropylsulfonyl-carbamoyl)-2-(7-methoxy-2-phenylquinolin-4-yloxy)-5,16-dioxo-1,2,3,5,6,7,8,9,10,11, 13a,14,14a,15,16,16a-hexadecahydrocyclopropa [e]pyrrolo[1,2-a][1,4]diazacyclopentadecin-6-yl)acetyl)piperazine-1-carboxylate] | > 6.00
